# According to patent US7642283B2, “Mitochrondrial permeability transition pore affinity labels and modulators” (Hoffmann-La Roche Inc., priority 2003, dated 2010):
# Legend:
# MPTP [1] = system: T1, MPTP; test: Ca2+-induced swelling in deenergized liver mitochondria; type: biochemical; settings: n=2; 30 min after addition of 200 μM Ca2+; read-out: EC50 of MPTP inhibition in deenergized mitochondria
# T1 construct: other: n=2; 30 min after addition of 200 μM Ca2+
# MPTP [2] = biological target: T2, MPTP (Rattus norvegicus, UniProt Q9Z2L0); test: Ca2+-induced depolarisation (membrane potential, Rhodamine-123) of rat brain mitochondria; type: biochemical
# T2 construct: other: n=2; glutamate/malate; other: glutamate/malate; 20 min; mean±SEM; unit not given; other: 300 nM; relieved by 50 μM Ub5
# VDAC1 = biological target: T3, VDAC1 (Rattus norvegicus, UniProt Q9Z2L0); test: Affinity labeling of rat mitochondria with the tritiated spiro compound, SDS-PAGE and fluorography; type: binding; settings: rat brain and liver mitochondria; 10 nM radiolabel; increasing concentration
# T3 construct: from tissue; host or cells: Percoll-purified rat brain and liver mitochondria
# Method: FIG. 6: Affinity-labeling of isolated rat brain (A) and liver (B) mitochondria. Mitochondrial preparations were incubated in the presence of 10 nM Spiro[cyclopentane-1,5′-[5H]dibenzo[a,d]cyclohepten]-2-one,10′,11′-t2-10′,11′-dihydro-3-methylene- for 15 min at 25° C. in presence or absence of various concentrations of Spiro[cyclopentane-1,5′-[5H]dibenzo[a,d]cyclohepten]-2-one,10′,11′-dihydro-3-methylene-(unlabeled). Samples were submitted to SDS-PAGE (see Experimental Procedures section for details) and fluorography. The fluorograms of the gels are shown. The molecular mass scale (kDa) is shown in the ordinate.
# (§1) FIG. 8: (A) Effect of monobromobimano (MBBM) and phenylarsino oxide (PhAO) on VDAC1 labeling by Spiro[cyclopentane-1,5′-[5H]dibenzo[a,d]cyclohepten]-2-one,10′,11′-t2-10′,11′-dihydro-3-methylene- in rat brain mitochondria. Experimental conditions were as in the legend to FIG. 5. (B) Effect of various MPTP inhibitors, atractyloside (ATR) and DIDS on VDAC1 labeling by Spiro[cyclopentane-1,5′-[5H]dibenzo[a,d]cyclohepten]-2-one,10′,11′-t2-10′,11′-dihydro-3-methylene- in rat brain mitochondria. Mitochondria were exposed to DIDS for 5 min before rinsing for removal of the free agent and labeling with Spiro[cyclopentane-1,5′-[5H]dibenzo[a,d]cyclohepten]-2-one,10′,11′-t2-10′,11′-dihydro-3-methylene.
# Percoll purified mitochondria (˜30 μg protein per sample) were incubated in the presence of 10 nM Spiro[cyclopentane-1,5′-[5H]dibenzo[a,d]cyclohepten]-2-one,10′,11′-t2-10′,11′-dihydro-3-methylene- in a final volume of 200 μl. After incubation for 15 min at 25° C., samples were centrifuged at 25000×g and the mitochondrial pellet rinsed twice with buffer. Samples were then solubilized in sample buffer containing β-mercaptoethanol (1 h at 37° C.) and subjected to SDS-polyacrylamide gel-electrophoresis (SDS-PAGE) on Tris-glycine Novex pre-cast mini-gels (12% monomer concentration, Invitrogen BV, The Netherlands). After Coomassie Blue staining, gels were processed for fluorography by soaking in Amplify™ (Amersham Biosciences), drying and exposing to X-ray BioMax MS film with BioMax MS intensifying screen (Kodak) at −80° C. for the appropriate time.
# as §1, with “Effect” for “FIG. 8: (A) Effect”, “monobromobimano” for “monobromobimano (MBBM)”, “oxide” for “oxide (PhAO)”, “Example 12 (FIG. 8A).” for “the legend to FIG. 5. (B)”, “Spiro[cyclopentane-1,5′-[5H]dibenzo[a,d]cyclohepten]-2-one,10′,11′-t2-10′,11′-dihydro-3-methylene (FIG. 8B).” for “Spiro[cyclopentane-1,5′-[5H]dibenzo[a,d]cyclohepten]-2-one,10′,11′-t2-10′,11′-dihydro-3-methylene.”
# YVDAC1 = biological target: T4, YVDAC1 (Saccharomyces cerevisiae, UniProt P04840); test: Affinity labeling of yeast mitochondria (Δpor1 and Δpor1 expressing YVDAC1); type: binding; settings: Δpor1 yeast mitochondria expressing YVDAC1; increasing concentration
# T4 construct: expressed in transfected cells; host or cells: Δpor1 yeast strain carrying a YVDAC1 plasmid; isolated mitochondria
# T4 sequence (P04840 2-283): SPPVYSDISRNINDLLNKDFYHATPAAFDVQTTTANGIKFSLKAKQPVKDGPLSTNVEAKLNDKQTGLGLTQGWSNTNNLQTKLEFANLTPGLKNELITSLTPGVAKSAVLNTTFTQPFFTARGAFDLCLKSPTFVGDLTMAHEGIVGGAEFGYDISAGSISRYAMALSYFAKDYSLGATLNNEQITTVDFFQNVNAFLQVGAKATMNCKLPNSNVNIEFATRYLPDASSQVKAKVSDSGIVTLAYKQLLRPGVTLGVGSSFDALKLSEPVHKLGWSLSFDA
# Excerpt: FIG. 9: Spiro[cyclopentane-1,5′-[5H]dibenzo[a,d]cyclohepten]-2-one,10′,11′-t2-10′,11′-dihydro-3-methylene affinity labeling of yeast mitochondria lacking the por1 gene for YVDAC1 (Δpor1) and into Δpor1 yeast mitochondria transfected with YVDAC1 in presence or absence of different concentrations of Spiro[cyclopentane-1,5′-[5H]dibenzo[a,d]cyclohepten]-2-one,10′,11′-dihydro-3-methylene (unlabeled). The fluorograms of gels after SDS-PAGE are shown. Mitochondria isolated from yeast strains were incubated in the presence of 10 nM Spiro[cyclopentane-1,5′-[5H]dibenzo[a,d]cyclohepten]-2-one,10′,11′-t2-10′,11′-dihydro-3-methylene for 15 min at 25° C. Numbers indicate the concentrations (μM) of the various compounds added.
# To further confirm VDAC1 as the protein target of Spiro[cyclopentane-1,5′-[5H]dibenzo[a,d]cyclohepten]-2-one,10′,11′-dihydro-3-methylene-, the labeling of proteins in mitochondria prepared from yeasts by Spiro[cyclopentane-1,5′-[5H]dibenzo[a,d]cyclohepten]-2-one,10′,11′-t2-10′,11′-dihydro-3-methylene- was investigated. […] Increasing concentration of unlabelled Spiro[cyclopentane-1,5′-[5H]dibenzo[a,d]cyclohepten]-2-one,10′,11′-dihydro-3-methylene-inhibited incorporation of the radioactivity (FIG. 9).
# T2 sequence (Q9Z2L0 2-283): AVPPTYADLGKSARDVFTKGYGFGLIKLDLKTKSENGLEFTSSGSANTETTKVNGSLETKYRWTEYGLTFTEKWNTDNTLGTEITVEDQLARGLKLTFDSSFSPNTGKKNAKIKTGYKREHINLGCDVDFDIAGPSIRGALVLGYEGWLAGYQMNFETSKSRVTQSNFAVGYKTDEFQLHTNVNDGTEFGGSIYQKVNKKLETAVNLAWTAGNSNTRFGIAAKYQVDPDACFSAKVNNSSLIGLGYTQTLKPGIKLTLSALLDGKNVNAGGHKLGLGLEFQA
# T3 sequence (Q9Z2L0 whole entry): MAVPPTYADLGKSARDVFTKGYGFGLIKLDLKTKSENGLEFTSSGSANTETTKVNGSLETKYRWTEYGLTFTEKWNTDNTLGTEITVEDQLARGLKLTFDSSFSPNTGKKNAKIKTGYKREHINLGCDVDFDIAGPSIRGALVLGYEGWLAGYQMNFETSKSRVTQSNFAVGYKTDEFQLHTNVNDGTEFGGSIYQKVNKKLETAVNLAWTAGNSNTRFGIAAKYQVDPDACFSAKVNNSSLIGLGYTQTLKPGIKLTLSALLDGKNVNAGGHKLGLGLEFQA
structure (smiles),measurement,setting,value
"C=C1CCC2(C1=O)c1ccccc1CCc1ccccc12 [Spiro[cyclopentane-1,5′-[5H]dibenzo[a,d]cyclohepten]-2-one,10′,11′-dihydro-3-methylene-]",EC50,MPTP [1],370 nM
same,Inhibition of Ca2+-induced depolarisation,"MPTP [2]; 300 nM, 20 μM Ca2+, relieved by 50 μM Ub5",inhibited
same,Number of Ca2+ additions necessary to induce complete depolarization,"MPTP [2]; series of 5 μM Ca2+ additions, membrane potential monitored",increased
same,Effect of unlabeled compound on labeling of the ~32 kDa band,VDAC1,inhibited
same,Effect of unlabelled compound on incorporation of radioactivity,YVDAC1,inhibited
